Laboratory results: ChEMBL document CHEMBL4602659, “β,β-Dimethylacrylshikonin Induces Apoptosis in Melanoma Cell Lines by NOXA Upregulation” (J Nat Prod, 2020)
Activity calls are given as the source filed them. The rule behind the calls is not given here.

Key:
[1] = tested on: MUGMel2; assay: Cytotoxicity against human MUGMel2 cells harboring NRAS pQ61K mutant assessed as reduction in cell viability after 72 hrs by EZ4U reagent based spectrophotometric method; type: functional; settings: MUGMel2, 72 h
[2] = tested on: SBcl2; assay: Cytotoxicity against human SBcl2 cells harboring NRAS Q61I mutant assessed as reduction in cell viability after 48 hrs by EZ4U reagent based spectrophotometric method; type: functional; settings: SBcl2, 48 h
[3] = tested on: WM164; assay: Cytotoxicity against human WM164 cells harboring BRAF V600E mutant assessed as reduction in cell viability after 24 hrs by EZ4U reagent based spectrophotometric method; type: functional; settings: WM164, 24 h
[4] = tested on: WM793; assay: Cytotoxicity against human WM793 cells harboring BRAF V600E mutant assessed as reduction in cell viability after 24 hrs by EZ4U reagent based spectrophotometric method; type: functional; settings: WM793, 24 h
[5] = tested on: WM793; assay: Cytotoxicity against human WM793 cells harboring BRAF V600E mutant assessed as reduction in cell viability after 48 hrs by EZ4U reagent based spectrophotometric method; type: functional; settings: WM793, 48 h
[6] = tested on: WM793; assay: Cytotoxicity against human WM793 cells harboring BRAF V600E mutant assessed as reduction in cell viability after 72 hrs by EZ4U reagent based spectrophotometric method; type: functional; settings: WM793, 72 h
[7] = tested on: MUGMel2; assay: Induction of apoptosis in human MUGMel2 cells assessed as early apoptotic cells at IC50 concentration after 6 hrs by Annexin V/SYTOX Green based flow cytometric analysis (reference value: 2.89%); type: functional
[8] = tested on: SBcl2; assay: Induction of apoptosis in human SBcl2 cells assessed as early apoptotic cells at IC50 concentration after 6 hrs by Annexin V/SYTOX Green based flow cytometric analysis (reference value: 4.26%); type: functional
[9] = tested on: SBcl2; assay: Induction of apoptosis in human SBcl2 cells assessed as late apoptotic cells at IC50 concentration after 6 hrs by Annexin V/SYTOX Green based flow cytometric analysis (reference value: 14.91%); type: functional
[10] = tested on: WM164; assay: Induction of apoptosis in human WM164 cells assessed as necrotic cells at IC50 concentration after 6 hrs by Annexin V/SYTOX Green based flow cytometric analysis (reference value: 0.81%); type: functional
[11] = tested on: WM793; assay: Induction of apoptosis in human WM793 cells assessed as viable cells at IC50 concentration after 6 hrs by Annexin V/SYTOX Green based flow cytometric analysis (reference value: 96.2%); type: functional
[12] = tested on: WM793; assay: Induction of apoptosis in human WM793 cells assessed as necrotic cells at IC50 concentration after 6 hrs by Annexin V/SYTOX Green based flow cytometric analysis (reference value: 0.32%); type: functional
[13] = tested on: MUGMel1; assay: Induction of apoptosis in human MUGMel1 cells assessed as early apoptotic cells at IC50 concentration after 24 hrs by Annexin V/SYTOX Green based flow cytometric analysis (reference value: 3.27%); type: functional
[14] = tested on: MUGMel2; assay: Induction of apoptosis in human MUGMel2 cells assessed as early apoptotic cells at IC50 concentration after 24 hrs by Annexin V/SYTOX Green based flow cytometric analysis (reference value: 3.31%); type: functional
[15] = tested on: SBcl2; assay: Induction of apoptosis in human SBcl2 cells assessed as early apoptotic cells at IC50 concentration after 6 hrs by Annexin V/SYTOX Green based flow cytometric analysis (reference value: 3.77%); type: functional
[16] = tested on: WM793; assay: Induction of apoptosis in human WM793 cells assessed as viable cells at IC50 concentration after 24 hrs by Annexin V/SYTOX Green based flow cytometric analysis (reference value: 96.52%); type: functional
[17] = tested on: MUGMel1; assay: Induction of apoptosis in human MUGMel1 cells assessed as increase in caspase -3 activity at IC50 concentration after 24 hrs by Alexa Fluor 647 antibody based flow cytometric analysis; type: functional, cell-based
[18] = tested on: WM793; assay: Induction of apoptosis in human WM793 cells assessed as increase in caspase -3 activity at IC50 concentration after 24 hrs by Alexa Fluor 647 antibody based flow cytometric analysis; type: functional, cell-based
[19] = tested on: WM164; assay: Antitumour activity against human WM164 cells xenografted in NU(NCr)-Foxn1 mouse assessed as increase in necrotic cells at 1 to 4 ug/g administered for three consecutive days with 1 day interval for four cycle by hematoxylin and eosin staining based microscopic analysis; type: functional
[20] = tested on: SBcl2; assay: Antitumour activity against human SBcl2 cells xenografted in NU(NCr)-Foxn1 mouse assessed as increase in caspase -activity at 2 ug/g administered for three consecutive days with 1 day interval for four cycle by hematoxylin and eosin staining based microscopic analysis; type: functional, cell-based
[21] = tested on: SBcl2; assay: Induction of apoptosis in human SBcl2 cells assessed as up regulation of NOXA protein expression at IC50 concentration after 24 hrs by Western blot analysis; type: functional, cell-based
[22] = tested on: WM793; assay: Induction of apoptosis in human WM793 cells assessed as effect on BAX mRNA expression at IC50 concentration after 6 to 24 hrs by RT-qPCR analysis; type: functional, cell-based
[23] = tested on: WM164; assay: Induction of apoptosis in human WM164 cells assessed as effect on BAX mRNA expression at IC50 concentration after 6 to 24 hrs by RT-qPCR analysis; type: functional, cell-based
[24] = tested on: SBcl2; assay: Induction of apoptosis in human SBcl2 cells assessed as effect on BAX mRNA expression at IC50 concentration after 6 to 24 hrs by RT-qPCR analysis; type: functional, cell-based
[25] = tested on: MUGMel1; assay: Induction of apoptosis in human MUGMel1 cells assessed as effect on BAX mRNA expression at IC50 concentration after 6 to 24 hrs by RT-qPCR analysis; type: functional, cell-based
[26] = tested on: WM793; assay: Induction of apoptosis in human WM793 cells assessed as up regulation of NOXA at IC50 concentration after 6 to 24 hrs by RT-qPCR analysis; type: functional, cell-based
[27] = tested on: WM164; assay: Induction of apoptosis in human WM164 cells treated with scrambled si-RNA assessed as up regulation of NOXA protein expression at IC50 concentration after 24 hrs by Western blot analysis; type: functional, cell-based
[28] = tested on: SBcl2; assay: Induction of apoptosis in human SBcl2 cells treated with scrambled si-RNA assessed as up regulation of NOXA protein expression at IC50 concentration after 24 hrs by Western blot analysis; type: functional, cell-based
[29] = tested on: WM793; assay: Induction of apoptosis in human WM793 cells assessed as effect on BAD protein expression at IC50 concentration after 24 hrs by Western blot analysis; type: functional, cell-based
[30] = tested on: WM164; assay: Induction of apoptosis in human WM164 cells assessed as effect on PUMA protein expression at IC50 concentration after 24 hrs by Western blot analysis; type: functional, cell-based
[31] = tested on: SBcl2; assay: Induction of apoptosis in human SBcl2 cells assessed as effect on PUMA protein expression at IC50 concentration after 24 hrs by Western blot analysis; type: functional, cell-based
[32] = tested on: MUGMel2; assay: Induction of apoptosis in human MUGMel2 cells assessed as effect on PUMA protein expression at IC50 concentration after 24 hrs by Western blot analysis; type: functional, cell-based
[33] = tested on: MUGMel2; assay: Induction of apoptosis in human MUGMel2 cells assessed as effect on BAD protein expression at IC50 concentration after 24 hrs by Western blot analysis; type: functional, cell-based
[34] = Toxicity in NU(NCr)-Foxn1 mouse xenografted with SBcl2 assessed as weight loss at 2 ug/g administered for three consecutive days with 1 day interval for four cycle; settings: in vivo
[35] = tested on: WM164; assay: Antitumour activity against human WM164 cells xenografted in NU(NCr)-Foxn1 mouse assessed as decrease in tumour size at 2 ug/g administered for three consecutive days with 1 day interval for four cycle; type: functional, cell-based

CC(C)=CC[C@@H](OC(=O)C=C(C)C)C1=CC(=O)c2c(O)ccc(O)c2C1=O [DIMETHYLACRYLSHIKONIN]
IC50 [1]: 1700 nM | IC50 [2]: 1100 nM | IC50 [3]: 3.8 µM | IC50 [4]: 1200 nM | IC50 [5]: 800 nM | IC50 [6]: 700 nM | Activity [7]: 10.56% | Activity [8]: 8.44% | Activity [9]: 70.21% | Activity [10]: 0.24% | Activity [11]: 88.54% | Activity [12]: 0.3% | Activity [13]: 40.28% | Activity [14]: 10.92% | Activity [15]: 16.44% | Activity [16]: 83.29% | Activity [17]: Active | Activity [18]: Active | Activity [19]: 60% | Activity [20]: Active | Activity [21]: Active | Activity [22]: inactive | Activity [23]: inactive | Activity [24]: inactive | Activity [25]: inactive | Activity [26]: inactive | Activity [27]: Active | Activity [28]: Active | Activity [29]: inactive | Activity [30]: inactive | Activity [31]: inactive | Activity [32]: inactive | Activity [33]: inactive | Activity [34]: Non-Toxic | Activity [35]: inactive
